Key:
[1] = system: biofilms formed from native saliva on hydroxyapatite (HAP) disks; test: Active-attachment biofilm model, colony forming units (live counts); assay type: cell-based; details: for number of CFUs relative to control solutions (water) and variable groups: Example 4; for number of CFUs relative to control solutions (water) and variable groups / Log CFU/ml: solutions; for Log CFU/ml: Example 4 (serine, lysine, with or without zinc)
Experimental: (§1) The active-attachment biofilm model has been previously described by Extercate et al. Caries Research 2010; 44: 372-379, the contents of which are incorporated by reference herein. The biofilm model consists of a metal lid with 24 clamps carrying hydroxyapatite (HAP) disks. The model is inoculated in 24-well plates with native saliva. Biofilms were formed via active recruitment of bacteria onto free-hanging HAP disks.
(§2) Treatment is performed after formation of a 24 h biofilm. Lactic acid production is determined to assess the residual metabolic activity of biofilms after repeated exposure to test products. The assay is conducted using a L-Lactate Assay Kit according to the manufacturer's protocol (Cayman Chemical Company, Cat. No. 700510).
Colony forming units (CFUs) are determined to assess the anti-bacterial efficacy of test solutions after repeated exposure to biofilms. HAP disks are removed from the lid and transferred to 1.5 ml CPW for sonication. CFUs are determined by colony counting. Statistical analysis was performed using Minitab 16 Software. ANOVA and Tukey test were performed on available CFU counts and lactic acid values.
Anti-bacterial efficacy of arginine alone and in combination with zinc in solutions and in toothpastes is tested by live counts using the biofilm model described in Example 1. The approximate number of live counts (CFUs) are as follows: […]

[2] = system: biofilms formed from native saliva on hydroxyapatite (HAP) disks; test: Active-attachment biofilm model, lactic acid production (residual metabolic activity); assay type: cell-based; details: for metabolic activity relative to control groups (water) and variable groups: Example 5
Experimental: as §1, §2
The anti-metabolic activity of arginine alone and combined with zinc on bacteria in solutions and in toothpastes is measured by lactic acid production during a 3-hour window after the last treatment. The bacterial metabolic activity, as measured by lactic acid production, decreases in (toothpaste) groups with:
The antibacterial activity of serine and lysine is assessed individually and in combination with zinc and determined by lactic acid production during a 3-hour window after the last treatment according to Example 1.
The anti-metabolic activity of serine and lysine individually, and in combination with zinc, are tested. Using the biofilm model described in Example 1, antibacterial activity of serine and lysine is tested individually and in combination with zinc.

[3] = solution, lactic acid production during a 3-hour window after the last treatment
[4] = solutions, Example 5 (serine, lysine, with or without zinc)

Row | Structure (SMILES) | CFU/ml ([1]; solution, live counts, biofilm model of Example 1) [Log CFU/ml] | Lactate [2, 3] [mM] | number of CFUs relative to control solutions (water) and variable groups [1] | Log CFU/ml [1] [Log CFU/ml] | metabolic activity relative to control groups (water) and variable groups ([2]; solutions) | Lactate [2, 4] [mM]
1 | [O-2].[Zn+2] [0.5% zinc oxide, zinc oxide] | 9.65 | 6.25 | – | – | – | –
2 | O=C([O-])CC(O)(CC(=O)[O-])C(=O)[O-].O=C([O-])CC(O)(CC(=O)[O-])C(=O)[O-].[Zn+2].[Zn+2].[Zn+2] [0.25% zinc citrate, zinc citrate] | – | 6.0 | – | – | – | –
3 | NCCCC[C@H](N)C(=O)O [4% lysine, lysine] | – | – | do not demonstrate a decrease | 9.37 | do not demonstrate a decrease in metabolic activity | 2.7
4 | N[C@@H](CO)C(=O)O [4% serine, serine] | – | – | do not demonstrate a decrease | 9.45 | do not demonstrate a decrease in metabolic activity | 2.4

Reference: US20180021234A1, “Oral Care Compositions and Methods of Use” (Colgate-Palmolive Company, priority 2015, published 2018)
